Tested on: A-431
Test: Antiproliferative activity against human epidermiod carcinoma A431 cells
Type: functional, cell-based

Structure (SMILES) | IC50
CCCC[C@@H]1NC(=O)[C@@H](Cc2c[nH]c3ccccc23)NC(=O)[C@H](Cc2ccc(O)cc2)NC(=O)[C@H]2C[C@@H](C)C=C(C)[C@H]2NC(=O)[C@H]([C@@H](C)OC(c2ccccc2)(c2ccccc2)c2ccccc2)NC1=O | 5 µM
CCCC[C@@H]1NC(=O)[C@@H](Cc2c[nH]c3ccccc23)NC(=O)[C@@H](Cc2ccc(O)cc2)NC(=O)[C@H]2C[C@@H](C)C=C(C)[C@H]2NC(=O)[C@H]([C@@H](C)OC(c2ccccc2)(c2ccccc2)c2ccccc2)NC1=O | 6 µM
CCCC[C@@H]1NC(=O)[C@H](Cc2c[nH]c3ccccc23)NC(=O)[C@@H](Cc2ccc(O)cc2)NC(=O)[C@@H]2CCCN2C(=O)[C@H](Cc2ccccc2)NC(=O)[C@@H]([C@@H](C)OC(c2ccccc2)(c2ccccc2)c2ccccc2)NC1=O | 26 µM

Next, values leading:

IC50 | Structure (SMILES)
32 µM | CCCC[C@@H]1NC(=O)[C@@H](Cc2c[nH]c3ccccc23)NC(=O)[C@H](Cc2ccc(O)cc2)NC(=O)[C@@H]2CCCN2C(=O)[C@H](Cc2ccccc2)NC(=O)[C@H]([C@@H](C)O)NC1=O
> 100 µM | CCCC[C@@H]1NC(=O)[C@@H](Cc2c[nH]c3ccccc23)NC(=O)[C@H](Cc2ccc(O)cc2)NC(=O)[C@H]2C[C@@H](C)C=C(C)[C@H]2NC(=O)[C@H]([C@@H](C)O)NC1=O
> 50 µM | C[C@@H](O)[C@@H]1NC(=O)C(CCCCN)NC(=O)[C@@H](Cc2c[nH]c3ccccc23)NC(=O)C(Cc2ccccc2)NC(=O)[C@@H]2CCCN2C(=O)C(Cc2ccccc2)NC1=O (single isomer, unassigned)

Source: ChEMBL document CHEMBL1143604, “Structure-activity relationship studies optimizing the antiproliferative activity of novel cyclic somatostatin analogues containing a restrained cyclic beta-amino acid” (J Med Chem, 2005)
